Laboratory results taken from patent US20080057140A1, “Use of a Lignan for the Manufacture of a Composition for Preventing or Alleviating of Symptoms Relating to Estrogen Deficiency” (priority 2005, published 2008).

Columns and labels:
[1] = plasma enterolactone after 7-hydroxymatairesinol capsules in human subjects; format: in vivo; conditions: healthy male volunteers, capsules 315 mg/day (3 x 105 mg), 29 days, FIG. 2
Experimental: The data for experimental days 1 and 29 is shown. On the x-axis, the time (hrs) after the first 105 mg dose is shown. The arrows denote the administration of the three 105 mg HMRlignan™ (hydroxymatairesinol) doses during the test days 1 and 29. N=6.
In brief, healthy male volunteers ingested capsule preparation of 7-hydroxymatairesinol, at total daily dose of 315 mg, divided in three 105 mg portion for morning, afternoon and evening dose. The subjects ingested the product continuously for 29 days. […] The levels were measured with a high-performance liquid chromatography coupled with tandem mass spectrometer system (Applied Biosystems Inc.).

[2] = disclosed in WO 00/59946; cited from earlier work

For `COc1cc(C[C@H]2C(=O)OC[C@@H]2[C@H](O)c2ccc(O)c(OC)c2)ccc1O` [7-hydroxymatairesinol], the circulating enterolactone concentration [1] is listed as “sustained increase” and the “conversion to enterolactone in vivo” value [2] is listed as “efficiently converted to enterolactone”.
